The source made the active and inactive calls. The calls are words filed in the database; no cut-off is given here.
How the values were obtained:
[1] = AUCt in Sprague-Dawley rat at 10 mg/kg, po measured up to 24 hrs by LC-MS/MS analysis; type: ADME, organism-based; parameters: route oral, dose 10 mg/kg, time <=24; conditions: in vivo
[2] = Stability of the compound in human plasma assessed as parent compound remaining measured after 2 hrs by LC-MS/MS analysis; type: ADME, cell-free; conditions: read-out: Stabilty
[3] = Cmax in Sprague-Dawley rat at 10 mg/kg, po measured up to 24 hrs by LC-MS/MS analysis; type: ADME, organism-based; parameters: route oral, dose 10 mg/kg, time <=24; conditions: in vivo
CYP2C9 = CYP2C9 (Homo sapiens, UniProt P11712); assay: Inhibition of CYP2C9 (unknown origin) at 10 uM preincubated for 5 min followed by NADPH addition and measured after 20 mins by LC-MS/MS analysis relative to control; type: ADME; conditions: time 25 min
[4] = Toxicity in BALB/c nude mouse xenografted with human MV4-11 cells assessed as effect on kidney at 60 mg/kg, po administered every two days for 14 days by hematoxyin-eosin staining based analysis; type: organism-based; conditions: in vivo, 336 h, time 14 day
MV4-11 [5] = assay: Antitumor activity against human MV4-11 cells xenografted in BALB/c nude mouse assessed as tumor growth inhibition by measuring T/C ratio at 60 mg/kg, po administered every two days for 14 days relative to control; type: functional; conditions: time 14 day
[6] = Half life in rat liver microsomes; type: ADME, Microsome
CYP2D6 = CYP2D6 (Homo sapiens, UniProt P10635); assay: Inhibition of CYP2D6 (unknown origin) at 10 uM preincubated for 5 min followed by NADPH addition and measured after 20 mins by LC-MS/MS analysis relative to control; type: ADME; conditions: time 25 min
[7] = Apparent volume of distribution in Sprague-Dawley rat at 3 mg/kg, iv measured up to 24 hrs by LC-MS/MS analysis; type: ADME, organism-based; conditions: in vivo, read-out: Vz
Homo sapiens = species on record: Homo sapiens; assay: Selectivity ratio of Kd for human partial length BCL2 (M1 to D211 residues) expressed in bacterial expression system to Kd for human partial length MCL1 ([…] to R329 residues) expressed in bacterial expression system
[8] = Stability of the compound in simulated intestinal fluid assessed as parent compound remaining measured after 6 hrs; type: ADME; conditions: read-out: Stabilty
[9] = Intrinsic clearance in human liver microsomes; type: ADME, Microsome; conditions: read-out: CLH
K562 [10] = assay: Induction of apoptosis in human K562 cells assessed as upregulation of cleaved PARP up to 5 uM measured after 48 hrs by Western blot analysis; type: functional, cell-based; conditions: dose microM <=5, time 48.0 hrs
[11] = Toxicity in BALB/c nude mouse xenografted with human MV4-11 cells assessed as effect on heart weight at 20 mg/kg, ip administered every two days for 14 days; type: organism-based; conditions: in vivo, 336 h, time 14 day
[12] = target: T1, Bcl-2-related protein A1 (Homo sapiens) (UniProt Q16548); assay: Inhibition of FITC-labeled Bak BH3 peptide binding to GST-tagged BFL1 (1 to 151 residues) (unknown origin) expressed in Escherichia coli BL21 (DE3) at 10 uM incubated for 30 mins fluorescence polarization-based competitive binding assay relative to control
T1 sequence (whole entry): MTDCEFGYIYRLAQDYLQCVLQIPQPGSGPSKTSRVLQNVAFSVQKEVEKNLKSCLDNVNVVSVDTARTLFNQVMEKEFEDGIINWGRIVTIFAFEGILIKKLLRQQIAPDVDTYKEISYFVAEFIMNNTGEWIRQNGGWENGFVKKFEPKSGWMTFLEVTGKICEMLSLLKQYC

[13] = Oral bioavailability in Sprague-Dawley rat at 10 mg/kg measured up to 24 hrs by LC-MS/MS analysis; type: ADME, organism-based; conditions: in vivo
K562 [14] = assay: Induction of apoptosis in human K562 cells assessed as activation of caspase 3 up to 5 uM after 4 hrs by luminescence based microplate reader assay; type: functional, cell-based; conditions: dose microM <=5, time 4.0 hrs
[15] = Clearance in Sprague-Dawley rat at 10 mg/kg, po measured up to 24 hrs by LC-MS/MS analysis; type: ADME, organism-based; conditions: in vivo
NCI-H929 = assay: Induction of apoptosis in human NCI-H929 cells assessed as activation of caspase 7 after 4 hrs by luminescence based microplate reader assay; type: functional, cell-based; conditions: dose microM <=5, time 4.0 hrs
MV4-11 [16] = assay: Antitumor activity against human MV4-11 cells xenografted in BALB/c nude mouse assessed as tumor growth inhibition by measuring T/C ratio at 20 mg/kg, ip administered every two days for 14 days relative to control; type: functional; conditions: time 14 day
[17] = Half life in Sprague-Dawley rat at 10 mg/kg, po measured up to 24 hrs by LC-MS/MS analysis; type: ADME, organism-based; conditions: in vivo
[18] = Stability in rat liver microsomes assessed as parent compound remaining preincubated for 5 mins followed by NADPH addition and measured after 30 mins by LC-MS/MS analysis; type: ADME, Microsome; conditions: time 35 min, read-out: Stabilty
Bcl-2-related protein A1 = target: T2, Bcl-2-related protein A1 (Homo sapiens, UniProt Q16548); assay: Binding affinity to human partial length BCL2A1 (M1 to G153 residues) expressed in bacterial expression system by BCL2SCAN assay
T2 sequence (Q16548 whole entry): T1 sequence (whole entry)

CYP1A2 = target: T3, CYP1A2 (Homo sapiens, UniProt P05177); assay: Inhibition of CYP1A2 (unknown origin) at 10 uM preincubated for 5 min followed by NADPH addition and measured after 20 mins by LC-MS/MS analysis relative to control; type: ADME; conditions: time 25 min
T3 sequence (P05177 whole entry): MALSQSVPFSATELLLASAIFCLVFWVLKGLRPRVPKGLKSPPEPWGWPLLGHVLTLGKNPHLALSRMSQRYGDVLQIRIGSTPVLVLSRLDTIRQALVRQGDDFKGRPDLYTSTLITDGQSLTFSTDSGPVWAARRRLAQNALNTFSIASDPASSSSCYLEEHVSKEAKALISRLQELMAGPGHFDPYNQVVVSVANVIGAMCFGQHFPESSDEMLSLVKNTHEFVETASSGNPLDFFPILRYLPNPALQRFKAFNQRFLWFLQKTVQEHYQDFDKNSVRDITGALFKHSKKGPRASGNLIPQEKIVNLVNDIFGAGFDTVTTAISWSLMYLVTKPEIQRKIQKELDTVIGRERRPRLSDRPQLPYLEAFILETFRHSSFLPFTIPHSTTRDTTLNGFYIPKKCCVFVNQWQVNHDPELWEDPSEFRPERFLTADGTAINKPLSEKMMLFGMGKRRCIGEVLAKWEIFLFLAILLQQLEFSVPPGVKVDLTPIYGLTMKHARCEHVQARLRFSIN

[19] = Toxicity in BALB/c nude mouse xenografted with human MV4-11 cells assessed as effect on kidney weight at 60 mg/kg, po administered every two days for 14 days; type: organism-based; conditions: in vivo, 336 h, time 14 day
[20] = Intrinsic clearance in rat liver microsomes; type: ADME, Microsome; conditions: read-out: CLH
[21] = Clearance in Sprague-Dawley rat at 3 mg/kg, iv measured up to 24 hrs by LC-MS/MS analysis; type: ADME, organism-based; conditions: in vivo
NCI-H23 = assay: Antiproliferative activity against human NCI-H23 cells assessed as decrease in cell viability measured after 72 hrs by MTT assay; type: functional, cell-based; conditions: NCI-H23, 72 h
[22] = Toxicity in BALB/c nude mouse xenografted with human MV4-11 cells assessed as effect on liver at 20 mg/kg, ip administered every two days for 14 days by hematoxyin-eosin staining based analysis; type: organism-based; conditions: in vivo, 336 h, time 14 day
[23] = Toxicity in BALB/c nude mouse xenografted with human MV4-11 cells assessed as effect on kidney weight at 20 mg/kg, ip administered every two days for 14 days; type: organism-based; conditions: in vivo, 336 h, time 14 day

Chain of CYP2C9 (P11712 whole entry): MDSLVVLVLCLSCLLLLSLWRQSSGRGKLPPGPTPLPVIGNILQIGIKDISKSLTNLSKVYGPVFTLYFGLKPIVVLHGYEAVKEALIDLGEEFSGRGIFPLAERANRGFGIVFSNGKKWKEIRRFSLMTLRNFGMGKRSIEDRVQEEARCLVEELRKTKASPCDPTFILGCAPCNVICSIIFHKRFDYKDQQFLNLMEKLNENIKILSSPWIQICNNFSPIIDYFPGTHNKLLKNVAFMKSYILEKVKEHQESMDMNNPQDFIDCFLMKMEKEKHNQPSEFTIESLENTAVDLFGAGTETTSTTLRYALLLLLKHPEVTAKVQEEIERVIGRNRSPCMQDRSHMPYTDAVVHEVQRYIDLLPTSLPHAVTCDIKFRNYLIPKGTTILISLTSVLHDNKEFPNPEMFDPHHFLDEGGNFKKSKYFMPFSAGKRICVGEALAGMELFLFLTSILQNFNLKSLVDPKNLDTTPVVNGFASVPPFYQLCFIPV
Chain of CYP2D6 (P10635 whole entry): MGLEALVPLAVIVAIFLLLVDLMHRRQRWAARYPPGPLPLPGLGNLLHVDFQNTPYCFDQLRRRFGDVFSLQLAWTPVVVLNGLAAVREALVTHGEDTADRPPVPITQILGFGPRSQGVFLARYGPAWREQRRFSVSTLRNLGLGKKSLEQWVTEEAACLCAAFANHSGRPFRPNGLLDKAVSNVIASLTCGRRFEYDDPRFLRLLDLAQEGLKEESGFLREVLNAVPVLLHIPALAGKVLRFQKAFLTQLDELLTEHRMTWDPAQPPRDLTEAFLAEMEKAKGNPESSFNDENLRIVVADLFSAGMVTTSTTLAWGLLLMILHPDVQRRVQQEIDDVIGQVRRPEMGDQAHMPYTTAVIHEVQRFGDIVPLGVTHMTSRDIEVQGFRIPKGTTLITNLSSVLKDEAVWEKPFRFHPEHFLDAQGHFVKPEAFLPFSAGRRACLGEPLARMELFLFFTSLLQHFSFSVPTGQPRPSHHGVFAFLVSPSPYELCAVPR

CC(=O)c1ccc(S(=O)(=O)c2c(C)c(C(=O)O)n(CCCOc3cc(C)c(Cl)c(C)c3)c2C)cc1
AUC(0-t) at 24 h [1]: 4530 ng·h/mL | remaining at 2 h [2]: 96.5% | Cmax [3]: 2010 ng/mL | inhibition at 20 min, 10 µM (CYP2C9): 26% | Activity [4]: Non-Toxic | T/C (MV4-11 [5]): 37.3% | half-life [6]: 0.75 h | inhibition at 20 min, 10 µM (CYP2D6): 9.13% | Vd [7]: 3.08 L/kg | Selectivity ratio (Homo sapiens): > 40000 | remaining at 6 h [8]: 85.2% | microsomal CLint [9]: 67.5 µL/min/mg | Activity (K562 [10]): inactive | Activity [11]: Non-Toxic | inhibition [12]: 1.57% | bioavailability [13]: 41.3% | Activity (K562 [14]): inactive | CL/F [15]: 36.8 mL/min/kg | Activity (NCI-H929): Dose-Dependent Effect | T/C (MV4-11 [16]): 5.52% | half-life [17]: 2.1 h | remaining at 0.5 h [18]: 58.1% | Kd (Bcl-2-related protein A1): > 10 µM | inhibition at 20 min, 10 µM (CYP1A2): 19.3% | Activity [19]: Non-Toxic | microsomal CLint [20]: 31.4 µL/min/mg | clearance [21]: 15.2 mL/min/kg | IC50 (NCI-H23): 3.02 µM | Activity [22]: Non-Toxic | Activity [23]: Non-Toxic

Source: ChEMBL document CHEMBL4834480, “Discovery of 3,5-Dimethyl-4-Sulfonyl-1H-Pyrrole-Based Myeloid Cell Leukemia 1 Inhibitors with High Affinity, Selectivity, and Oral Bioavailability” (J Med Chem, 2021)
